Assay results: patent US9630001B2, “Methods for modulating osteochondral development using bioelectric stimulation” (MedRelief Inc., priority 2005, dated 2017)

System: Normal human cartilage cells (HCC)
Experiment: Cell growth assessed by DNA content of the cell layer
Format: cell-based
Conditions: 0.1% serum, PEMF 40 microAmps once every 24 hours, measured after 72 hours, L-NAME co-administered
Experimental: Normal human cartilage cells (HCC; CAMBREX®, Walkersville, Md.) were plated in rectangular cell chambers in monolayer. PEMF application was capacitively coupled through a niobium electrode bridge system which allowed a time varying current to flow uniformly through the chambers. A pulse-burst B-type signal as described herein is composed of a 10-msec burst of asymmetric rectangular pulses, 200/28 microseconds in width, repeated at 15 Hz. The PEMF signal was applied for 30 minutes per treatment. Cell growth was assessed by DNA content of the cell layer. Nitric oxide (NO) content of culture media was assessed by the Griess reaction using an assay kit from INVITROGEN INC.® (Carlsbad, Calif.). Results are expressed as micromoles of NO per cell number as assessed by DNA content of the cell layer.

Q: `COC(=O)[C@@H](N)CCCNC(=N)N[N+](=O)[O-]` [L-NAME, N(G)-nitro-1-arginine methyl ester] was tested. Which “effect on PEMF-increased cell number (DNA, FIG. 7)” value did it give?
A: The value was “attenuated”.
